Where a name gives a salt, the structure may show the parent alone.
Experiments:
[1] = system: HCC70 cells; assay: Cell bioactivity detection (CyQuant), HCC70; assay type: cell-based; details: human breast cancer cells HCC70, 72 hours
Procedure: (§1) Trypsinization was performed on A2780 and HCC70 cells. Cell suspensions were respectively transferred to 15 mL of centrifuge tubes and centrifuged at 800 rpm for 5 min. The supernatant was discarded. Resuspension in a fresh culture medium (RPMI 1640+10% FBS) was performed. After counting, the cells were inoculated at 2000/well in a 384-well plate (50 φL of 1640+10% FBS culture medium was added to the 2nd line and the 23rd line of the 384-well plate, and 50 μL of DPBS was added to surrounding wells). Incubation in an incubator (37° C., 5% CO2) was performed overnight.
(§2) The compound was added to the well plate the next day. The compound had the highest concentration of 10 μM and was diluted at the ratio of 1:4 to form 9 concentrations. The positive compound Paclitaxel had the highest concentration of 1 μM and was diluted at the ratio of 1:3 to form 9 concentrations. The DMSO content of each well was unified to 0.2%. A cell plate was centrifuged at 800 rpm for 30 seconds. Incubation for 72 hours in an incubator (37° C., 5% CO2) was performed. On the fourth day, a Cyquant reagent (3×) was prepared according to kit instructions. Each 384-well plate was prepared in the following proportions: DPBS: 11.568 mL, CyQuant® Direct nucleic acid stain: 72 μL, CyQuant® Direct background suppressor: 360 ILL. The plates were uniformly mixed and placed for standby application at room temperature. The cell plate was taken out and placed at room temperature to be balanced for 30 min. 25 μL of Cyquant reagent (3×) was dispensed to the cells in each well of the 384-well plates by using a Multi-drop dispenser. Incubation at 37° C. for 60 or more minutes was performed. The plates were read by Acumen (Acumen was configured to have a 488 nm excitation wavelength). IC50 results were analyzed by XLFIT5 of the IDBS company.

[2] = system: A2780 cells; assay: Cell bioactivity detection (CyQuant), A2780; assay type: cell-based, human; details: ovarian carcinoma cells A2780, 72 hours
Procedure: as §1, §2

[3] = biological target: CDK7/cyclin H/MAT1 complex (Homo sapiens (Human), UniProt P50613); assay: In vitro enzymatic inhibitory activity test, CDK7; assay type: biochemical; details: Caliper mobility shift, 180 min at 27° C.
Procedure: (§3) CDK7/CyclinH was diluted in a test buffer solution (20 mM MES PH6.75, 0.01% Tween20, 50 ug/mL BSA, 6 mM MgCl2) to obtain a corresponding enzyme solution with a 2.4× concentration. CDK2/CyclinE1 was diluted in a test buffer solution (20 mM MES PH6.75, 0.01% Tween20, 50 ug/mL BSA, 6 mM MgCl2) to obtain a corresponding enzyme solution with a 2.4× concentration. CDK9/CyclinT1 was diluted in a test buffer solution (20 mM MES PH6.75, 0.01% Tween20, 50 ug/mL BSA, 10 mM MgCl2) to obtain a corresponding enzyme solution with a 2.4× concentration. CDK12/CyclinK was diluted in a test buffer solution (80 mM MES PH6.5, 0.01% Tween20, 50 ug/mL BSA, 10 mM MgCl2) to obtain a corresponding enzyme solution with a 2.4× concentration. The compounds were dissolved in dimethyl sulfoxide (DMSO) at a concentration of 10 mM. […] 2 ul of a test compound solution was mixed with 5 ul of enzyme solution. After incubating for 10 min, 5 ul of the mixed solution of the polypeptide substrate and ATP was added. After incubating at 27° C. for 180 min, 4 uL of EDTA with a 120 mM concentration was added to each sample to stop the reaction. […] A CDK9/cyclin TI complex (8 nM) and a “5-FAM-CDK9tide” peptide substrate (2 μM, synthetic fluorophore labeled peptide having the following sequence: 5-FAM-GSRTPMY-NH2, where 5-FAM was as defined above, and NH2 represented C-terminal amide) were used for testing the CDK9 inhibition. […] A CDK2/cyclin E1 complex (0.5 nM) and the “5-FAM-CDK7tide” (2 μM) as defined above were used for testing the CDK2 inhibition.
(§4) Electrophoretic separation was performed on Caliper EZ Reader II by means of a fluorogenic substrate and a phosphorylated product to analyze the reaction mixture. Data were calculated by using GraphPad Prism version 6.0. IC50 values were adjusted by means of a nonlinear regression model using a dose-response curve.

[4] = biological target: CDK9/CyclinT1 (Homo sapiens (Human), UniProt P50750); assay: In vitro enzymatic inhibitory activity test, CDK9; assay type: biochemical; details: Caliper mobility shift, 180 min at 27° C.
Procedure: as §3, §4

[5] = biological target: CDK12(aa686-1082)/cyclin K complex (Homo sapiens (Human), UniProt Q9NYV4); assay: In vitro enzymatic inhibitory activity test, CDK12; assay type: biochemical; details: Caliper mobility shift, 180 min at 27° C.
Procedure: as §3, §4

[6] = biological target: CDK2/cyclin E1 complex (Homo sapiens (Human), UniProt P24941); assay: In vitro enzymatic inhibitory activity test, CDK2; assay type: biochemical; details: Caliper mobility shift, 180 min at 27° C.
Procedure: CDK7/CyclinH was diluted in a test buffer solution (20 mM MES PH6.75, 0.01% Tween20, 50 ug/mL BSA, 6 mM MgCl2) to obtain a corresponding enzyme solution with a 2.4× concentration. CDK2/CyclinE1 was diluted in a test buffer solution (20 mM MES PH6.75, 0.01% Tween20, 50 ug/mL BSA, 6 mM MgCl2) to obtain a corresponding enzyme solution with a 2.4× concentration. CDK9/CyclinT1 was diluted in a test buffer solution (20 mM MES PH6.75, 0.01% Tween20, 50 ug/mL BSA, 10 mM MgCl2) to obtain a corresponding enzyme solution with a 2.4× concentration. CDK12/CyclinK was diluted in a test buffer solution (80 mM MES PH6.5, 0.01% Tween20, 50 ug/mL BSA, 10 mM MgCl2) to obtain a corresponding enzyme solution with a 2.4× concentration. […] 2 ul of a test compound solution was mixed with 5 ul of enzyme solution. After incubating for 10 min, 5 ul of the mixed solution of the polypeptide substrate and ATP was added. After incubating at 27° C. for 180 min, 4 uL of EDTA with a 120 mM concentration was added to each sample to stop the reaction. […] A CDK9/cyclin TI complex (8 nM) and a “5-FAM-CDK9tide” peptide substrate (2 μM, synthetic fluorophore labeled peptide having the following sequence: 5-FAM-GSRTPMY-NH2, where 5-FAM was as defined above, and NH2 represented C-terminal amide) were used for testing the CDK9 inhibition. […] A CDK2/cyclin E1 complex (0.5 nM) and the “5-FAM-CDK7tide” (2 μM) as defined above were used for testing the CDK2 inhibition.
as §4

CDK9/CyclinT1, sequence (P50750 whole entry, species assumed): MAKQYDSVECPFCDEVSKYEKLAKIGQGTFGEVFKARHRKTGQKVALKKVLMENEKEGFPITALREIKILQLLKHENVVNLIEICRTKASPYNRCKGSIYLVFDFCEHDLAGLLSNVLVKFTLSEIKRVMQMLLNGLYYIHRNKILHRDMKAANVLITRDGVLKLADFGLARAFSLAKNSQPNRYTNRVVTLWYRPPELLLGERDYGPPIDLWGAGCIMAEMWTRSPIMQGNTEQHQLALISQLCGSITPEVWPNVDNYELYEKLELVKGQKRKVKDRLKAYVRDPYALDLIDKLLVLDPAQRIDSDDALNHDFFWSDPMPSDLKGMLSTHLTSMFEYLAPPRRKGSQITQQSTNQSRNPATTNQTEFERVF
CDK9/CyclinT1, sequence (O60563 whole entry partner, species assumed): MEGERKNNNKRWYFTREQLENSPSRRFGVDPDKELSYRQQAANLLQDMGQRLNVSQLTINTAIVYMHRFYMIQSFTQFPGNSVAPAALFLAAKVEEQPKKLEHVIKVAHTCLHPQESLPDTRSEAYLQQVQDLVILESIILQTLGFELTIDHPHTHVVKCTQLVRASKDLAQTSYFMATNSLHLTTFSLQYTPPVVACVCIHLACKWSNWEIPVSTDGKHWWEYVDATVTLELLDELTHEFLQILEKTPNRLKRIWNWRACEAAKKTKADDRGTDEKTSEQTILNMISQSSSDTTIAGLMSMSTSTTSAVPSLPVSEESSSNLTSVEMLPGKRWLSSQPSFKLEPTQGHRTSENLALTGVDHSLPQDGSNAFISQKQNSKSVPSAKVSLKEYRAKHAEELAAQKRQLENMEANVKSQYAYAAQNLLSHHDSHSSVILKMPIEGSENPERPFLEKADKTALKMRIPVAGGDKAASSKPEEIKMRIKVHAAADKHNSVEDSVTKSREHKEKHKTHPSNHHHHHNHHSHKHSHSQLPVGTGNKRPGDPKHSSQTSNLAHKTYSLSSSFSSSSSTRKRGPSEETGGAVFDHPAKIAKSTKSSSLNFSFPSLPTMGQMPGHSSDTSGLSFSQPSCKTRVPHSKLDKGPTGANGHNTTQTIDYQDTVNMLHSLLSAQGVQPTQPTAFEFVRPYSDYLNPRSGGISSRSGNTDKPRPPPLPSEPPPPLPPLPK
CDK7/cyclin H/MAT1 complex, sequence (P50613 whole entry, species assumed): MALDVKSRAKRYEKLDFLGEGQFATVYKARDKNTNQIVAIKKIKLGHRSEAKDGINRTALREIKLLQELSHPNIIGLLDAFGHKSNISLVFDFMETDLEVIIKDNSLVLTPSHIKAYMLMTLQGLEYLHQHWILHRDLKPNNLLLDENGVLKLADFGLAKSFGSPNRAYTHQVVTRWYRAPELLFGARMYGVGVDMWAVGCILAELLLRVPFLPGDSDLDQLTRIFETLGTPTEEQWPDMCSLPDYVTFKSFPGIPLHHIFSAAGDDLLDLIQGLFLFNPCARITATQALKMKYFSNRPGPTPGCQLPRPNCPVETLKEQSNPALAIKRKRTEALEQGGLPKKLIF
CDK7/cyclin H/MAT1 complex, sequence (P51946 whole entry partner, species assumed): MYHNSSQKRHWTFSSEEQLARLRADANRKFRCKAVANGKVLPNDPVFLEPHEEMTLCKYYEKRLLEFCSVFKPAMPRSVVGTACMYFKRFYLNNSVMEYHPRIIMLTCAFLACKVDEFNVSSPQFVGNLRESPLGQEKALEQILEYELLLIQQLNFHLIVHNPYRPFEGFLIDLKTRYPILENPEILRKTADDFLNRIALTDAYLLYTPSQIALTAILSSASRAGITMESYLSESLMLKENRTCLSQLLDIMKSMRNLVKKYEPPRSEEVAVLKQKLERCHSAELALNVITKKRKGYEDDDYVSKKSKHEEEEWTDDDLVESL
CDK7/cyclin H/MAT1 complex, sequence (P51948 whole entry partner, species assumed): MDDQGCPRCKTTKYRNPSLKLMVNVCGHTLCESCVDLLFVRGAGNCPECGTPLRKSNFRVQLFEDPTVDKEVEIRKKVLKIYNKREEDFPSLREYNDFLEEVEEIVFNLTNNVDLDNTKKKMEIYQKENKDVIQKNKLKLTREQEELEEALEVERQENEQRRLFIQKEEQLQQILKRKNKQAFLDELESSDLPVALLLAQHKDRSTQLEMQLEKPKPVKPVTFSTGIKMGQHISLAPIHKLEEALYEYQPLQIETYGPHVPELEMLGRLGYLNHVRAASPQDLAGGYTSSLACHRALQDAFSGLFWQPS
CDK12(aa686-1082)/cyclin K complex, sequence (Q9NYV4 686-1082, species assumed): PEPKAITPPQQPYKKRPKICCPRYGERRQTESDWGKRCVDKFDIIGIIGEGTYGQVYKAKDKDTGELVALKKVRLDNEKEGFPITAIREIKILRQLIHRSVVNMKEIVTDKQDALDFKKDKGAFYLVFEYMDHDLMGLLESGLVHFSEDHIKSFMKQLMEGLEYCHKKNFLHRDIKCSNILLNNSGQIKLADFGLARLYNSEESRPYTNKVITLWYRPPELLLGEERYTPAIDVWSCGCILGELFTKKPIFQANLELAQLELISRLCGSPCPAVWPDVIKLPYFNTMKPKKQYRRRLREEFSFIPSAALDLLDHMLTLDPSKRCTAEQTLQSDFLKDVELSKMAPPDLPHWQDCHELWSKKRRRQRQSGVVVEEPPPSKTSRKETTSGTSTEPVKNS
CDK12(aa686-1082)/cyclin K complex, sequence (O75909 whole entry partner, species assumed, the tested form may be a part): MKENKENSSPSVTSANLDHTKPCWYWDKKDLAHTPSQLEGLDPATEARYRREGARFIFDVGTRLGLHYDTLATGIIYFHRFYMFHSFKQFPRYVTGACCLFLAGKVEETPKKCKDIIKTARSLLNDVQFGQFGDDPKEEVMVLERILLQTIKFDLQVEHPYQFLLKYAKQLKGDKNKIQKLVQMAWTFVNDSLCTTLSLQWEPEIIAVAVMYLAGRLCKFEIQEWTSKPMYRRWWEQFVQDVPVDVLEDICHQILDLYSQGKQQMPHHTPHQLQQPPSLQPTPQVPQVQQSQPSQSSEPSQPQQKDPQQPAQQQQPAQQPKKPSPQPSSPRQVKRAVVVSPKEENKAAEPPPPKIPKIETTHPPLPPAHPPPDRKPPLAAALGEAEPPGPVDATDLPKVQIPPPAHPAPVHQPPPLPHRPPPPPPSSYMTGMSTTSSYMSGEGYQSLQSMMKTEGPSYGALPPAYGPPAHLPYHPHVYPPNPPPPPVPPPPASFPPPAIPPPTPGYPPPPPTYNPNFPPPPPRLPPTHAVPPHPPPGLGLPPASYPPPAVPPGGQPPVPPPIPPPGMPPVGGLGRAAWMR

Structure (SMILES)	IC50 ([1]; Homo sapiens, HCC70, 72 h)	IC50 ([2]; Homo sapiens, A2780, 72 h)	IC50 [3]	IC50 [4]	IC50 [5]	IC50 [6]	IC50 [1]	IC50 [2]
FC(F)(F)c1cnc(N[C@H]2CCCNC2)nc1-c1c[nH]c2nc(C34CCOCC3C4)ccc12 (stereo partly drawn) [Compound 31, 4-(6-(3-oxabicyclo[4.1.0]heptan-6-yl)-1H-pyrrolo[2,3-b]pyridin-3-yl)-N—((S)-piperidin-3-yl)-5-(trifluoromethyl)pyrimidine-2-amine formate]	5.8 nM	4.1 nM	8.13 nM	1480 nM	517 nM	968 nM		
FC(F)(F)c1cnc(N[C@H]2CCCNC2)nc1-c1c[nH]c2nc(C3CCOC3)ccc12 (single isomer, unassigned) [Compound 108]			4.36 nM	1410 nM	512 nM	947 nM	3.8 nM	3.9 nM
FC(F)(F)c1cnc(N[C@H]2CCCNC2)nc1-c1c[nH]c2nc(N3CCC4(CC3)COC4)ccc12 [Compound 15, (S)-4-(6-(2-oxa-7-azaspiro[3.5]nonan-7-yl)-1H-pyrrolo[2,3-b]pyridin-3-yl)-N-(piperidin-3-yl)-5-(trifluoromethyl)pyrimidine-2-amine]	12 nM	10 nM	16.5 nM	3320 nM	1120 nM	4150 nM		
FC(F)(F)c1cnc(N[C@@H]2CN3CCC2CC3)nc1-c1c[nH]c2nc(N3CCOCC3)ccc12 [Compound 44, (S)—N-(4-(6-morpholinyl-1H-pyrrol[2,3-b]pyridin-3-yl)-5-(trifluoromethyl)pyrimidin-2-yl)quinine-3-amine formate]	684 nM	253 nM	131 nM	3650 nM	4460 nM	> 10000 nM		
FC(F)(F)c1cnc(N[C@H]2CCCNC2)nc1-c1c[nH]c2cc(N3CCCC3)ccc12 [Compound 101, (S)—N-(Piperidin-3-Yl)-4-(6-(Pyrrolidin-1-Yl)-1H-Indol-3-Yl)-5-(Trifluoromethyl)Pyrimidine-2-Amine, reference compound]	232 nM	157 nM	28.5 nM	4610 nM	1600 nM	> 10000 nM		
C[C@@H]1COCCN1c1ccc2c(-c3nc(N[C@H]4CCCNC4)ncc3C(F)(F)F)c[nH]c2n1 [Compound 19, 4-(6-((R)-3-methylmorpholinyl)-1H-pyrrolo[2,3-b]pyridin-3-yl)-N—((S)-piperidin-3-yl)-5-(trifluoromethyl)pyrimidine-2-amine]	220 nM	185 nM	159 nM	> 10000 nM	8720 nM	> 10000 nM		
FC(F)(F)c1cnc(N[C@H]2CCCNC2)nc1-c1c[nH]c2nc(N3CCOC[C@@H]3C(F)(F)F)ccc12 [Compound 33, N—((S)-piperidin-3-yl)-5-(trifluoromethyl)-4-(6-((R)-3-(trifluoromethyl)morpholinyl)-1H-pyrrol[2,3-b]pyridin-3-yl)pyrimidine-2-amine]	12 nM	2.4 nM	46.8 nM	4430 nM	2010 nM	3230 nM		
OCC1CCN(c2ccc3c(-c4nc(N[C@H]5CCCNC5)ncc4C(F)(F)F)c[nH]c3n2)CC1 [Compound 4]	6.1 nM	8 nM	17.4 nM	682 nM	733 nM	1480 nM		
FC(F)(F)c1cnc(N[C@H]2CCCNC2)nc1-c1c[nH]c2nc(N3CCC4(CCO4)CC3)ccc12 [Compound 16, (S)-4-(6-(1-oxa-7-azaspiro[3.5]nonan-7-yl)-1H-pyrrolo[2,3-b]pyridin-3-yl)-N-(piperidin-3-yl)-5-(trifluoromethyl)pyrimidine-2-amine]	13 nM	11 nM	10.8 nM	3580 nM	1230 nM	2880 nM		
FC(F)(F)c1cnc(N[C@H]2CCCNC2)nc1-c1c[nH]c2nc(C3=CCOCC3)ccc12 [Compound 27, (S)-4-(6-(3,6-dihydro-2H-pyran-4-yl)-1H-pyrrolo[2,3-b]pyridin-3-yl)-N-(piperidin-3-yl)-5-(trifluoromethyl)pyrimidine-2-amine]	30 nM	5.1 nM	2.17 nM	1500 nM	418 nM	1120 nM		
CC1(O)CCN(c2ccc3c(-c4nc(N[C@H]5CCCNC5)ncc4C(F)(F)F)c[nH]c3n2)CC1 [Compound 23, (S)-4-methyl-1-(3-(2-(piperidine-3-amino)-5-(trifluoromethyl)pyrimidin-4-yl)-1H-pyrrolo[2,3-b]pyridin-6-yl)piperidin-4-ol]	19.9 nM	8.8 nM	13.1 nM	2610 nM	783 nM	4310 nM		
C[C@@H]1CNC[C@@H](Nc2ncc(C(F)(F)F)c(-c3c[nH]c4nc(N5CCOC[C@@H]5C)ccc34)n2)C1 [Compound 115, 4-(6-((S)-3-methylmorpholinyl)-1H-pyrrol[2,3-b]pyridin-3-yl)-N-((3S,5S)-5-methylpiperidin-3-yl)-5-(trifluoromethyl)pyrimidine-2-amine]	42 nM	45.5 nM	9.52 nM	27700 nM	12900 nM	19500 nM		
C[C@H]1COCCN1c1ccc2c(-c3nc(N[C@H]4CCCNC4)ncc3C(F)(F)F)c[nH]c2n1 [Compound 18, 4-(6-((S)-3-methylmorpholinyl)-1H-pyrrolo[2,3-b]pyridin-3-yl)-N—((S)-piperidin-3-yl)-5-(trifluoromethyl)pyrimidine-2-amine]	6.7 nM	7.2 nM	9.47 nM	2870 nM	2290 nM	6560 nM		

From patent US20240132489A1, “AROMATIC HETEROCYCLIC COMPOUND, PHARMACEUTICAL COMPOSITION, AND USE THEREOF” (GT APEIRON THERAPEUTICS LIMITED, priority 2020, published 2024)
